The values that follow are results of earlier work, collected in US6586413B2, “Methods and compositions for reducing ischemic injury of the heart by administering adenosine receptor agonists and antagonists” (The United States of America as represented by the …, priority 1999, dated 2003).

The structures appear in SMILES notation.

For the first data set, the system named is Rat Brain A1 and A2-Receptors. To be noted: rat brain, reference 31; cited from earlier work.
Regarding `COc1ccccc1C=Cc1nc2c(c(=O)n(C)c(=O)n2C)n1C` [17b], the A1/A2 ratio is given as 18.
Regarding `COc1cccc(C=Cc2nc3c(c(=O)n(C)c(=O)n3C)n2C)c1` [19b], the A1/A2 ratio is recorded as 64.
For the compound `Cn1c(=O)c2c(nc(/C=C/c3cccc(C(F)(F)F)c3)n2C)n(C)c1=O` [20b], the A1/A2 ratio is 25.
For the compound `Cn1c(=O)c2c(nc(C=Cc3cccc([N+](=O)[O-])c3)n2C)n(C)c1=O` [21b], the A1/A2 ratio is 11.
Turning to `Cn1c(=O)c2c(nc(C=Cc3cccc(N)c3)n2C)n(C)c1=O` [22b], the A1/A2 ratio is listed as 30.
Take `Cn1c(=O)c2c(nc(C=Cc3cccc(F)c3)n2C)n(C)c1=O` [27b]: the A1/A2 ratio is recorded as 190.
`COc1ccc(C=Cc2nc3c(c(=O)n(C)c(=O)n3C)n2C)cc1` [29b]: the A1/A2 ratio is recorded as 44.
As to `COc1ccc(C=Cc2nc3c(c(=O)n(C)c(=O)n3C)n2C)cc1OC` [32b], the A1/A2 ratio is recorded as 70.
As for `COc1cc(C=Cc2nc3c([nH]2)c(=O)n(C)c(=O)n3C)cc(OC)c1` [33a], the A1/A2 ratio is recorded as 25.
On to `COc1cc(C=Cc2nc3c(c(=O)n(C)c(=O)n3C)n2C)cc(OC)c1` [33b], for which the A1/A2 ratio was more than 200.
On to `Cn1c(=O)c2c(nc(C=Cc3cc(F)cc(F)c3)n2C)n(C)c1=O` [34b], for which the A1/A2 ratio is 230.
In the case of `COc1ccc(C=Cc2nc3c(c(=O)n(C)c(=O)n3C)n2C)c(OC)c1OC` [43b], the A1/A2 ratio is reported as 34.
Consider `COc1cc(C=Cc2nc3c(c(=O)n(C)c(=O)n3C)n2C)cc(OC)c1OC` [44b], for which the A1/A2 ratio is 70.
For the compound `CCCn1c(=O)c2c(nc(C=Cc3cc(OC)cc(OC)c3)n2C)n(CCC)c1=O` [53b], the A1/A2 ratio is recorded as 110.
`CC(=O)Nc1cccc(C=Cc2nc3c(c(=O)n(C)c(=O)n3C)n2C)c1` [compound 23]: the A1/A2 ratio is 240.
Regarding `Cn1c(=O)c2c(nc(C=Cc3cccc(NC(=O)CCC(=O)O)c3)n2C)n(C)c1=O` [compound 24], the A1/A2 ratio is on record as 250.
In the case of `Cn1c(=O)c2c(nc(C=Cc3cccc(NC(=O)OC(C)(C)C)c3)n2C)n(C)c1=O` [compound 25], the A1/A2 ratio is on record as 30.
`Cn1c(=O)c2c(nc(C=Cc3cccc(N(C(=O)OC(C)(C)C)C(=O)OC(C)(C)C)c3)n2C)n(C)c1=O` [compound 26]: the A1/A2 ratio is recorded as 15.
Turning to `COc1cc(C=Cc2nc3c(c(=O)n(C)c(=O)n3C)n2C)cc(OC)c1O` [compound 35], the A1/A2 ratio is 19.
For the compound `COc1cc(C=Cc2nc3c(c(=O)n(C)c(=O)n3C)n2C)cc(OC)c1OC(C)=O` [compound 36], the A1/A2 ratio is 93.
In the case of `COc1cc(C=Cc2nc3c(c(=O)n(C)c(=O)n3C)n2C)cc(OC)c1OCCCCN` [compound 38], the A1/A2 ratio is recorded as 36.
On to `COc1cc(C=Cc2nc3c(c(=O)n(C)c(=O)n3C)n2C)cc(OC)c1OCCCCNC(=O)OC(C)(C)C` [compound 39], for which the A1/A2 ratio is 42.
Regarding `COc1cc(C=Cc2nc3c(c(=O)n(C)c(=O)n3C)n2C)cc(OC)c1OCC=CCN` [compound 40], the A1/A2 ratio was 28.
Consider `COc1cc(C=Cc2nc3c(c(=O)n(C)c(=O)n3C)n2C)cc(OC)c1OCC=CCNC(C)=O` [compound 41], for which the A1/A2 ratio is more than 50.
For the compound `COc1cc(C=Cc2nc3c(c(=O)n(C)c(=O)n3C)n2C)cc(OC)c1OCC=CCNC(=O)OC(C)(C)C` [compound 42], the A1/A2 ratio is recorded as more than 40.
Turning to `C=CCn1c(=O)c2c(nc(C=Cc3cc(OC)c(OC)c(OC)c3)n2C)n(CC=C)c1=O` [compound 46], the A1/A2 ratio is 13.

The data set is the same for the next values; noted with them: second value printed in brackets below; brackets not explained; cited from earlier work.
For `COc1cc(C=Cc2nc3c(c(=O)n(C)c(=O)n3C)n2C)cc(OC)c1OC` [44b], the “A1/A2 ratio, value in square brackets” value is “[>5600]”.
For `C=CCn1c(=O)c2c(nc(C=Cc3cc(OC)c(OC)c(OC)c3)n2C)n(CC=C)c1=O` [compound 46], the “A1/A2 ratio, value in square brackets” value was “[>6700]”.
